Laboratory results: patent US20140272949A1, “Methods for Fully Segregating Recombinant Marine Cyanobacteria” (ALGENOL BIOFUELS INC., priority 2013, published 2014)

System: PCC7002:pAB125 clones
Test: Growth on low salt spectinomycin segregation plates
Type: cell-based, Synechococcus sp. strain PCC 7002
Description: 1 mL of the culture was washed once in BG-11 (2.500×g, 10 min spin) and streaked for single colonies on low salt media (BG-11+vB12) plates with various spectinomycin concentrations (sp15, 30, 60, 120, 240, 300, 360, and 500 μg/mL). These segregation plates were incubated at room temperature with low light overnight and then at 37° C. with continuous light or with a 12 h/12 h light/dark cycle for approximately 2 weeks.

With `CN[C@@H]1[C@H](O)[C@H](NC)[C@H]2O[C@@]3(O)C(=O)C[C@@H](C)O[C@H]3O[C@@H]2[C@H]1O` [spectinomycin] the “growth on low salt plates” value (240 and 300 mg/L of spectinomycin, BG-11+vB12, about 2 weeks) was “single colonies formed”, the “growth on low salt plates” value (higher spectinomycin concentrations (360, 500 μg/mL), BG-11+vB12) was “No colonies were found” and the “growth on low salt plates” value (spectinomycin at 15 to 120 mg/L, BG-11+vB12, about 2 weeks) was “abundant growth”.
